Assay results from patent US20240299566A1, “POLY-ARGININE DERIVATIVES FOR ENHANCING BRAIN-DERIVED GROWTH FACTOR TO MITIGATE NEUROLOGICAL DISORDERS” (priority 2021, published 2024).
“Also recorded” adds a separate entry of the source.

Experiments:
[1] = system: repeated corticosterone-injected mice; assay: Tail Suspension Test in repeated corticosterone-injected mice; format: in vivo; details: single i.v. injection 1 mg/kg, day 7 after injection
Text: FIG. 3B is a scatter plot showing immobility time of control mice or depressed mice during a Tail Suspension Test, 7 days after injection of vehicle or Compounds of Formula (IV), *P<0.001 vs. control mice.
(§1) Preclinical identification of fast-onset antidepressants requires animal models that can accurately predict the delay to therapeutic onset. […] This has led to the approval of SPRAVATO® (esketamine), a ketamine-derived drug which is the first antidepressant with a novel mechanism of action approved in decades. The neurobiological changes believed to underlie depressive symptomatology have been reliably characterized using exogenous corticosterone (CORT) administration e.g. dendritic atrophy in hippocampal pyramidal cells with loss of CA3 and CA1 apical dendrites. […] Mice then received a single injection of compounds of Formula (IV) (1 mg/kg) or Vehicle (0.9% NaCl). Day 7 after injection of compounds of Formula (IV), immobility times in the FST and TST were tested as described. #P<0.001 vs. control mice.

[2] = system: Angelman syndrome (AS) mice; assay: Hippocampal LTP (field EPSP slopes, CA1) in Angelman syndrome mice after IP injection; format: in vivo; details: for LTP (field EPSP slopes, CA1 region of hippocampus): IP, AS mice
Description: Field EPSP slopes were recorded in the CA1 region of the hippocampus.
Electrophysiological recordings and data analysis were performed as described in Cao et al., 2013 (Impairment of TrkB-PSD-95 Signaling in Angelman Syndrome. PLoS Biol 11, e1001478 (2013). Coronal brain slices (350 μm) were maintained in an interface chamber containing oxygenated artificial cerebral spinal fluid (ACSF) for at least 1 h before use. Slices were transferred to a submersion recording chamber perfused with oxygenated ACSF at 2 ml/min. Extracellular postsynaptic field potentials (fEPSPs) were performed by placing electrodes (borosilicate glass, resistance <1 MΩ) in the CA1 stratum radiatum and synaptic responses elicited by stimulation of the Schaffer Collaterals using concentric bipolar stimulation electrodes and recorded using an AxoClamp2B amplifier (Axon instruments) and EX1 differential amplifier (Dagan), and digitized at 10 kHz. Data were acquired using Igor Pro (Wave Metrics) and Neuromatic (neuromatic.thinkrandom.com). LTP was induced by high frequency stimulation (2×HFS for is at 100 Hz separated by 20 s) of Schaffer collateral afferents and LTP values are expressed as percentage of baseline±SEM. Paired two-tailed t-tests were used for statistical analysis.

IL-1β = assay: Inflammatory cytokine expression in CORT behavioral model of depression; format: in vivo, mice; details: acute injection, FIG. 4A
Text: A major breakthrough in our understanding of the mechanistic basis for depression is the “inflammatory hypothesis”.

[3] = system: SH-SY5Y cells transfected with HA-TrkB; assay: BDNF-stimulated TrkB signaling, western blot with phospho-specific antibodies; format: cell-based; details: 1 μM, FIG. 1D
Description: FIG. 1A depicts western blots probed with phospho-specific antibodies against p-MTOR, p-Erk and p-S6 from SHSY5Y cells transfected with TrkB and stimulated with 30 ng/ml BDNF. Blots depict expression before (0′), or 15 or 60 minutes (15′ and 60′) after BDNF stimulation.
SH-SY5Y cells were transfected with HA-TrkB. Following transfection, cells were starved in MEM for 3 hours. In the last 90 minutes of starvation, cells were treated with compounds of Formula (IV) or CN-2097 (shown below) at 1 μM and 5 μM. In the last hour of starvation, cells were stimulated with BDNF. Western blots probed with phospho-specific antibodies against p-MTOR, p-Erk and p-S6 (FIG. 1A).

[4] = system: repeated corticosterone-injected mice; assay: Forced Swim Test in repeated corticosterone-injected mice; format: in vivo; details: single i.v. injection 1 mg/kg, day 7 after injection
Text: FIG. 3A is a scatter plot showing immobility time of control mice or depressed mice during a Forced Swim Test, 7 days after injection of vehicle or Compounds of Formula (IV), where *P<0.001 vs. control mice.
as §1

microglia = assay: Microglia morphology in CORT mouse model of depression; format: in vivo, mice; details: acute injection, FIG. 4C
Text: Microglial cells are capable of influencing complex moods, synaptic plasticity, neurogenesis, and memory. […] Classically activated, pro-inflammatory microglia phenotypes (termed M1-like), often release inflammatory mediators that result in severely injured tissue. Alternatively activated, anti-inflammatory microglial phenotypes (termed M2-like) are neuroprotective in function and promote the survival of new neurons. In a healthy brain, most microglial cells are in a resting state. The morphology of resting microglia is poly-branched with many fine branches and a smaller cytoplasm, compared to active microglia that display an increased soma size and more irregular shape of their cell body. Activation of microglia results in the release of pro-inflammatory factors, namely IL-1β, TNFα and IL-6.

ischemic episode = assay: Proposed treatment of patient with ischemia; format: in vivo, human; details: 50 mg/Kg i.v. within 2 hours of onset; outcome within 48 hours
Description: A person presents with an ischemic episode resulting sudden numbness the face, and left arm, confusion, and trouble speaking. […] Doses of from about 1 to about 100 mg/Kg will be used.

## CC(C)C(NC(=O)C1CCC(=O)NCCC(=O)NCCCCC(NC(=O)C(CCC(N)=O)NC(=O)C(NC(=O)C(Cc2c[nH]c3ccccc23)NC(=O)C2CCCN2C(=O)C2CCCN2C(=O)C(Cc2ccccc2)NC(=O)C(CO)NC(=O)CNC(=O)C(N)CSSCC(N)C(=O)NC(CCCNC(=N)N)C(=O)NC(CCCNC(=N)N)C(=O)NC(CCCNC(=N)N)C(=O)NC(CCCNC(=N)N)C(=O)NC(CCCNC(=N)N)C(=O)NC(CCCNC(=N)N)C(=O)NC(CCCNC(=N)N)C(N)=O)C(C)C)C(=O)NC(C(C)O)C(=O)N1)C(=O)O (centres unmarked) [Formula (IV)]
[1]
  immobility time in Tail Suspension Test: reduced the duration of immobility time
[2]; Angelman mouse model, FIG. 2A-2C
  restoration of hippocampal LTP, dose compared to CN2097: restored hippocampal LTP in an Angelman mouse model at a significantly lower dose as compared to CN2097
[2]; 0.5 mg/kg
  LTP (field EPSP slopes, CA1 region of hippocampus): resulted in LTP; also recorded: LTP was observed
[2]; 1 mg/kg
  LTP (field EPSP slopes, CA1 region of hippocampus): LTP was observed
[2]; 2 mg/kg
  LTP (field EPSP slopes, CA1 region of hippocampus): LTP was observed
IL-1β
  IL-1β expression: blocks the increased expression of IL-1β
[3]; BDNF stimulation
  p-S6 activity: enhanced p-S6 activity
[3]
  dose enhancing p-S6 activity, fold lower compared to CN2097: 5 fold
[4]
  immobility time in Forced Swim Test: reduced the duration of immobility time
microglia
  microglia phenotype: switches microglia from an active form (CORT depression) to the resting phenotype
Ischemic episode
  patient outcome after ischemic episode: recovers without significant brain damage
